Measured values from ChEMBL document CHEMBL1136688, “Synthesis and SAR of aminoalkoxy-biaryl-4-carboxamides: novel and selective histamine H3 receptor antagonists” (Bioorg Med Chem Lett, 2003).

Biological target: Histamine H3 receptor (Homo sapiens, UniProt Q9Y5N1)
Experiment: Binding affinity for human recombinant H3 receptor

Sequence of Histamine H3 receptor (Homo sapiens, UniProt Q9Y5N1) (Q9Y5N1 whole entry): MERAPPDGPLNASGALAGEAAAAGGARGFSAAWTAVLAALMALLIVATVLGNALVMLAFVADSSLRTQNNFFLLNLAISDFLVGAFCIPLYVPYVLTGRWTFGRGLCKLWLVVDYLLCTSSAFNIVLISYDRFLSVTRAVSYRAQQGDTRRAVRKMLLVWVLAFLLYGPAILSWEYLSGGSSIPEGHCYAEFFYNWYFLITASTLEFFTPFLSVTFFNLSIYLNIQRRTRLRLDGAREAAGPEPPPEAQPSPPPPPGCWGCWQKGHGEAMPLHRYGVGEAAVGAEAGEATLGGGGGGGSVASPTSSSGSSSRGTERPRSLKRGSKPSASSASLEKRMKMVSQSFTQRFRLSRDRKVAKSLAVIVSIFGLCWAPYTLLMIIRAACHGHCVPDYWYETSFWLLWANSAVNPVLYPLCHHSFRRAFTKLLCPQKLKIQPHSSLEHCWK

Row | Ki | SMILES
1 | 4.68 nM | CC1CCN(CCCOc2ccc(-c3ccc(C(=O)N4[C@@H](C)CC[C@@H]4C)cc3)cc2)CC1
2 | 2.4 nM | CCN(CC)CCCOc1ccc(-c2ccc(C(=O)N3CCOCC3)cc2)cc1
3 | 40.7 nM | O=C(c1ccc(-c2ccc(OCCCN3CCOCC3)cc2)cc1)N1CCCC1
4 | 8.13 nM | CCN(CC)C(=O)c1ccc(-c2ccc(OCCCN3CC[C@H](O)C3)cc2)cc1
5 | 0.692 nM | C[C@H]1CC[C@H](C)N1CCCOc1ccc(-c2ccc(C(=O)N3CCCC3)cc2)cc1
6 | 229 nM | CC(C)NCCCOc1ccc(-c2ccc(C(=O)N3[C@@H](C)CC[C@@H]3C)cc2)cc1
7 | 3.72 nM | CC1CCN(CCCOc2ccc(-c3ccc(C(=O)N4CCCC4C)cc3)cc2)CC1 (configuration not stated)
8 | 6.17 nM | O=C(c1ccc(-c2ccc(OCCCN3CC[C@H](O)C3)cc2)cc1)N1CCOCC1
9 | 37.2 nM | C[C@H]1CC[C@H](C)N1C(=O)c1ccc(-c2ccc(OCCCN3CCOCC3)cc2)cc1
10 | 0.851 nM | CC(C)NC(=O)c1ccc(-c2ccc(OCCCN3[C@@H](C)CC[C@@H]3C)cc2)cc1
11 | 2.09 nM | CC1CCN(CCCOc2ccc(-c3ccc(C(=O)NC(C)C)cc3)cc2)CC1
12 | 6.46 nM | CC1CCCN1C(=O)c1ccc(-c2ccc(OCCCN3CC[C@H](N(C)C)C3)cc2)cc1 (some centres not stated)
13 | 5.5 nM | CN(C)[C@@H]1CCN(CCCOc2ccc(-c3ccc(C(=O)N4CCOCC4)cc3)cc2)C1
14 | 2.14 nM | CCN(CC)CCCOc1ccc(-c2ccc(C(=O)N3CCCC3C)cc2)cc1 (configuration not stated)
15 | 3.63 nM | CC1CCN(CCCOc2ccc(-c3ccc(C(=O)N4CCCC4)cc3)cc2)CC1
16 | 6.92 nM | CC1CCN(C(=O)c2ccc(-c3ccc(OCCCN4CC[C@H](O)C4)cc3)cc2)CC1
17 | 6.46 nM | O=C(c1ccc(-c2ccc(OCCCN3CC[C@H](O)C3)cc2)cc1)N1CCCC1
18 | 8.32 nM | CC1CCCN1C(=O)c1ccc(-c2ccc(OCCCN3CC[C@H](O)C3)cc2)cc1 (some centres not stated)
19 | 9.77 nM | CC(C)NCCCOc1ccc(-c2ccc(C(=O)N3CCCC3C)cc2)cc1 (configuration not stated)
20 | 1.12 nM | O=C(c1ccc(-c2ccc(OCCCN3CCCC3)cc2)cc1)N1CCCC1
21 | 11.2 nM | C[C@H]1CC[C@H](C)N1C(=O)c1ccc(-c2ccc(OCCCN3CC[C@H](O)C3)cc2)cc1
22 | 2.88 nM | CN(C)[C@@H]1CCN(CCCOc2ccc(-c3ccc(C(=O)N4CCCC4)cc3)cc2)C1
23 | 10.7 nM | CC1CCN(CCCOc2ccc(-c3ccc(C(=O)N4CCC(C)CC4)cc3)cc2)CC1

Row | Ki | SMILES
24 | 0.776 nM | CC1CCCN1C(=O)c1ccc(-c2ccc(OCCCN3[C@@H](C)CC[C@@H]3C)cc2)cc1 (some centres not stated)
25 | 24.5 nM | CC1CCCN1C(=O)c1ccc(-c2ccc(OCCCN3CCOCC3)cc2)cc1 (configuration not stated)
26 | 8.13 nM | CC(C)N(C)C(=O)c1ccc(-c2ccc(OCCCN3CC[C@H](O)C3)cc2)cc1
27 | 18.2 nM | O=C(c1ccc(-c2ccc(OCCCN3CCOCC3)cc2)cc1)N1CCOCC1
28 | 5.13 nM | CCN(CC)CCCOc1ccc(-c2ccc(C(=O)N3[C@@H](C)CC[C@@H]3C)cc2)cc1
29 | 0.776 nM | CCN(CC)C(=O)c1ccc(-c2ccc(OCCCN3[C@@H](C)CC[C@@H]3C)cc2)cc1
30 | 182 nM | CC1CCN(C(=O)c2ccc(-c3ccc(OCCCNC(C)C)cc3)cc2)CC1
31 | 23.4 nM | CC1CCN(C(=O)c2ccc(-c3ccc(OCCCN4CCOCC4)cc3)cc2)CC1
32 | 4.37 nM | C[C@H]1CC[C@H](C)N1C(=O)c1ccc(-c2ccc(OCCCN3CC[C@H](N(C)C)C3)cc2)cc1
33 | 0.603 nM | CC1CCN(C(=O)c2ccc(-c3ccc(OCCCN4[C@@H](C)CC[C@@H]4C)cc3)cc2)CC1
34 | 7.24 nM | CC1CCN(CCCOc2ccc(-c3ccc(C(=O)N4CCOCC4)cc3)cc2)CC1
35 | 16.2 nM | CCN(CC)C(=O)c1ccc(-c2ccc(OCCCN3CCOCC3)cc2)cc1
36 | 0.977 nM | C[C@H]1CC[C@H](C)N1CCCOc1ccc(-c2ccc(C(=O)N3[C@@H](C)CC[C@@H]3C)cc2)cc1
37 | 3.89 nM | CC1CCN(C(=O)c2ccc(-c3ccc(OCCCN4CC[C@@H](N(C)C)C4)cc3)cc2)CC1
38 | 110 nM | CCN(CC)C(=O)c1ccc(-c2ccc(OCCCNC(C)C)cc2)cc1
39 | 32.4 nM | CC(C)NCCCOc1ccc(-c2ccc(C(=O)N3CCOCC3)cc2)cc1
40 | 3.47 nM | CCN(CC)CCCOc1ccc(-c2ccc(C(=O)N3CCC(C)CC3)cc2)cc1
41 | 38.9 nM | CC(C)NC(=O)c1ccc(-c2ccc(OCCCN3CCOCC3)cc2)cc1
42 | 3.02 nM | CCN(CC)CCCOc1ccc(-c2ccc(C(=O)N3CCCC3)cc2)cc1
43 | 6.92 nM | CCN(CC)C(=O)c1ccc(-c2ccc(OCCCN3CC[C@H](N(C)C)C3)cc2)cc1
44 | 4.79 nM | CCN(CC)C(=O)c1ccc(-c2ccc(OCCCN3CCC(C)CC3)cc2)cc1
45 | 6.17 nM | CCN(CC)CCCOc1ccc(-c2ccc(C(=O)NC(C)C)cc2)cc1

Row | SMILES | Ki
46 | CC(C)(C)CCC#C[C@@H]1C[C@H]1c1c[nH]cn1 [CIPRALISANT] | 2.14 nM

Biological target: Histamine H3 receptor (Rattus norvegicus, UniProt Q9QYN8)
Sequence (Q9QYN8 whole entry): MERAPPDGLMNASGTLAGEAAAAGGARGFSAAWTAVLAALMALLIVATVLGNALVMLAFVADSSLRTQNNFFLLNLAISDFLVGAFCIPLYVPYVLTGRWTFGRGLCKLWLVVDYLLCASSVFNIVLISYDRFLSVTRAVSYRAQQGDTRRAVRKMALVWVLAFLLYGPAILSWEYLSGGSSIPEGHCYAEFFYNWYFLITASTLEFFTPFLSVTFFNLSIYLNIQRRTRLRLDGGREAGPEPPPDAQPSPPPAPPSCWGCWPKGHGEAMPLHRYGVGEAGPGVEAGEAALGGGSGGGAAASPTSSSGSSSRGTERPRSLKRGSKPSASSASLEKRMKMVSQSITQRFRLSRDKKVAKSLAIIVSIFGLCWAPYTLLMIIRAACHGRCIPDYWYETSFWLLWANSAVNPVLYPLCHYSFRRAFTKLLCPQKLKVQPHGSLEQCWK
Experiment: Binding affinity towards rat cortical H3 receptor

Row | Ki | SMILES
47 | 3.63 nM | CC1CCN(CCCOc2ccc(-c3ccc(C(=O)N4[C@@H](C)CC[C@@H]4C)cc3)cc2)CC1
48 | 8.91 nM | CCN(CC)CCCOc1ccc(-c2ccc(C(=O)N3CCOCC3)cc2)cc1
49 | 178 nM | O=C(c1ccc(-c2ccc(OCCCN3CCOCC3)cc2)cc1)N1CCCC1
50 | 42.7 nM | CCN(CC)C(=O)c1ccc(-c2ccc(OCCCN3CC[C@H](O)C3)cc2)cc1
51 | 5.13 nM | C[C@H]1CC[C@H](C)N1CCCOc1ccc(-c2ccc(C(=O)N3CCCC3)cc2)cc1
52 | 219 nM | CC(C)NCCCOc1ccc(-c2ccc(C(=O)N3[C@@H](C)CC[C@@H]3C)cc2)cc1
53 | 2.82 nM | CC1CCN(CCCOc2ccc(-c3ccc(C(=O)N4CCCC4C)cc3)cc2)CC1 (configuration not stated)
54 | 32.4 nM | O=C(c1ccc(-c2ccc(OCCCN3CC[C@H](O)C3)cc2)cc1)N1CCOCC1
55 | 115 nM | C[C@H]1CC[C@H](C)N1C(=O)c1ccc(-c2ccc(OCCCN3CCOCC3)cc2)cc1
56 | 2.82 nM | CC(C)NC(=O)c1ccc(-c2ccc(OCCCN3[C@@H](C)CC[C@@H]3C)cc2)cc1
57 | 3.8 nM | CC1CCN(CCCOc2ccc(-c3ccc(C(=O)NC(C)C)cc3)cc2)CC1
58 | 21.4 nM | CC1CCCN1C(=O)c1ccc(-c2ccc(OCCCN3CC[C@H](N(C)C)C3)cc2)cc1 (some centres not stated)
59 | 27.5 nM | CN(C)[C@@H]1CCN(CCCOc2ccc(-c3ccc(C(=O)N4CCOCC4)cc3)cc2)C1
60 | 7.24 nM | CCN(CC)CCCOc1ccc(-c2ccc(C(=O)N3CCCC3C)cc2)cc1 (configuration not stated)
61 | 10.2 nM | CC1CCN(CCCOc2ccc(-c3ccc(C(=O)N4CCCC4)cc3)cc2)CC1
62 | 30.9 nM | CC1CCN(C(=O)c2ccc(-c3ccc(OCCCN4CC[C@H](O)C4)cc3)cc2)CC1
63 | 33.1 nM | O=C(c1ccc(-c2ccc(OCCCN3CC[C@H](O)C3)cc2)cc1)N1CCCC1
64 | 25.7 nM | CC1CCCN1C(=O)c1ccc(-c2ccc(OCCCN3CC[C@H](O)C3)cc2)cc1 (some centres not stated)
65 | 42.7 nM | CC(C)NCCCOc1ccc(-c2ccc(C(=O)N3CCCC3C)cc2)cc1 (configuration not stated)
66 | 6.61 nM | O=C(c1ccc(-c2ccc(OCCCN3CCCC3)cc2)cc1)N1CCCC1
67 | 57.5 nM | C[C@H]1CC[C@H](C)N1C(=O)c1ccc(-c2ccc(OCCCN3CC[C@H](O)C3)cc2)cc1
68 | 18.6 nM | CN(C)[C@@H]1CCN(CCCOc2ccc(-c3ccc(C(=O)N4CCCC4)cc3)cc2)C1

Row | Ki | SMILES
69 | 20.9 nM | CC1CCN(CCCOc2ccc(-c3ccc(C(=O)N4CCC(C)CC4)cc3)cc2)CC1
70 | 1.02 nM | CC1CCCN1C(=O)c1ccc(-c2ccc(OCCCN3[C@@H](C)CC[C@@H]3C)cc2)cc1 (some centres not stated)
71 | 112 nM | CC1CCCN1C(=O)c1ccc(-c2ccc(OCCCN3CCOCC3)cc2)cc1 (configuration not stated)
72 | 28.8 nM | CC(C)N(C)C(=O)c1ccc(-c2ccc(OCCCN3CC[C@H](O)C3)cc2)cc1
73 | 52.5 nM | O=C(c1ccc(-c2ccc(OCCCN3CCOCC3)cc2)cc1)N1CCOCC1
74 | 13.8 nM | CCN(CC)CCCOc1ccc(-c2ccc(C(=O)N3[C@@H](C)CC[C@@H]3C)cc2)cc1
75 | 479 nM | CC1CCN(C(=O)c2ccc(-c3ccc(OCCCNC(C)C)cc3)cc2)CC1
76 | 70.8 nM | CC1CCN(C(=O)c2ccc(-c3ccc(OCCCN4CCOCC4)cc3)cc2)CC1
77 | 17.4 nM | C[C@H]1CC[C@H](C)N1C(=O)c1ccc(-c2ccc(OCCCN3CC[C@H](N(C)C)C3)cc2)cc1
78 | 2.95 nM | CC1CCN(C(=O)c2ccc(-c3ccc(OCCCN4[C@@H](C)CC[C@@H]4C)cc3)cc2)CC1
79 | 8.71 nM | CC1CCN(CCCOc2ccc(-c3ccc(C(=O)N4CCOCC4)cc3)cc2)CC1
80 | 97.7 nM | CCN(CC)C(=O)c1ccc(-c2ccc(OCCCN3CCOCC3)cc2)cc1
81 | 29.5 nM | CC1CCN(C(=O)c2ccc(-c3ccc(OCCCN4CC[C@@H](N(C)C)C4)cc3)cc2)CC1
82 | 407 nM | CCN(CC)C(=O)c1ccc(-c2ccc(OCCCNC(C)C)cc2)cc1
83 | 129 nM | CC(C)NCCCOc1ccc(-c2ccc(C(=O)N3CCOCC3)cc2)cc1
84 | 8.32 nM | CCN(CC)CCCOc1ccc(-c2ccc(C(=O)N3CCC(C)CC3)cc2)cc1
85 | 135 nM | CC(C)NC(=O)c1ccc(-c2ccc(OCCCN3CCOCC3)cc2)cc1
86 | 12.9 nM | CCN(CC)CCCOc1ccc(-c2ccc(C(=O)N3CCCC3)cc2)cc1
87 | 28.2 nM | CCN(CC)C(=O)c1ccc(-c2ccc(OCCCN3CC[C@H](N(C)C)C3)cc2)cc1
88 | 9.12 nM | CCN(CC)C(=O)c1ccc(-c2ccc(OCCCN3CCC(C)CC3)cc2)cc1
89 | 16.2 nM | CCN(CC)CCCOc1ccc(-c2ccc(C(=O)NC(C)C)cc2)cc1

Row | SMILES | Ki
90 | CC(C)(C)CCC#C[C@@H]1C[C@H]1c1c[nH]cn1 [CIPRALISANT] | 0.195 nM

Biological target: Histamine H2 receptor (Homo sapiens, UniProt P25021)
Sequence (P25021 whole entry): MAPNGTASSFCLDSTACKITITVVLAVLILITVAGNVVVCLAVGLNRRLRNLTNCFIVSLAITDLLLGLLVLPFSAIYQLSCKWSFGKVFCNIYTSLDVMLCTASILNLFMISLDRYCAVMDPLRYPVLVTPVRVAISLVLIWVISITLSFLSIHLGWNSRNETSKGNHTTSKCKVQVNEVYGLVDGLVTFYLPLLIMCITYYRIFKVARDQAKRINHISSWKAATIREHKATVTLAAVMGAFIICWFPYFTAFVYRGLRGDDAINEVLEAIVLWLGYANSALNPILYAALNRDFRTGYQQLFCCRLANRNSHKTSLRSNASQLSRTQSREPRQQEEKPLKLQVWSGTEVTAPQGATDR
Experiment: Binding affinity towards human histamine (H2) receptor

Row | Ki | SMILES
91 | > 1910 nM | O=C(c1ccc(-c2ccc(OCCCN3CCCC3)cc2)cc1)N1CCCC1

Biological target: Histamine H1 receptor (Homo sapiens, UniProt P35367)
Sequence (P35367 whole entry): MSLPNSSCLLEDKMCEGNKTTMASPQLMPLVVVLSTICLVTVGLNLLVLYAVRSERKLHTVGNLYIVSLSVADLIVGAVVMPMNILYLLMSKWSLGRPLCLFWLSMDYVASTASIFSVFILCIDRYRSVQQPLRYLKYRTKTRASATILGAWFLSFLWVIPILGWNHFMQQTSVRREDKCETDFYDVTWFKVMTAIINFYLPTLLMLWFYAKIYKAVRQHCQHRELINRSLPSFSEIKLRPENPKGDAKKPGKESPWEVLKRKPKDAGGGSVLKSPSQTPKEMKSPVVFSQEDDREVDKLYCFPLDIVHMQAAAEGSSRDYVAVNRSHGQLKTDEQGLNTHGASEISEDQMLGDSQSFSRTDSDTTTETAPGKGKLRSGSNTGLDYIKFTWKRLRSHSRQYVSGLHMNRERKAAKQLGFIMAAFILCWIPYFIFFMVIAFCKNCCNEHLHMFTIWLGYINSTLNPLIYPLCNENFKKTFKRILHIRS
Experiment: Binding affinity towards human histamine (H1) receptor

Row | Ki | SMILES
92 | > 1910 nM | O=C(c1ccc(-c2ccc(OCCCN3CCCC3)cc2)cc1)N1CCCC1
